Legend:
[1] = target: PHF8 (Homo sapiens, UniProt Q9UPP1); assay: 2-Oxoglutarate oxygenase assay panel, AlphaScreen assay; type: biochemical; settings: ± SEM
[2] = target: 5-HT1A (h) (Homo sapiens, UniProt P08908); assay: Cerep Express Panel, agonist radioligand; type: binding; settings: read-out: % Inhibition of reference (10 µM)
[3] = target: T1, norepinephrine transporter (h) (Homo sapiens, UniProt P23975); assay: Cerep Express Panel, antagonist radioligand; type: binding; settings: read-out: % Inhibition of reference (10 µM)
T1 construct: CEREP
T1 sequence (P23975 whole entry): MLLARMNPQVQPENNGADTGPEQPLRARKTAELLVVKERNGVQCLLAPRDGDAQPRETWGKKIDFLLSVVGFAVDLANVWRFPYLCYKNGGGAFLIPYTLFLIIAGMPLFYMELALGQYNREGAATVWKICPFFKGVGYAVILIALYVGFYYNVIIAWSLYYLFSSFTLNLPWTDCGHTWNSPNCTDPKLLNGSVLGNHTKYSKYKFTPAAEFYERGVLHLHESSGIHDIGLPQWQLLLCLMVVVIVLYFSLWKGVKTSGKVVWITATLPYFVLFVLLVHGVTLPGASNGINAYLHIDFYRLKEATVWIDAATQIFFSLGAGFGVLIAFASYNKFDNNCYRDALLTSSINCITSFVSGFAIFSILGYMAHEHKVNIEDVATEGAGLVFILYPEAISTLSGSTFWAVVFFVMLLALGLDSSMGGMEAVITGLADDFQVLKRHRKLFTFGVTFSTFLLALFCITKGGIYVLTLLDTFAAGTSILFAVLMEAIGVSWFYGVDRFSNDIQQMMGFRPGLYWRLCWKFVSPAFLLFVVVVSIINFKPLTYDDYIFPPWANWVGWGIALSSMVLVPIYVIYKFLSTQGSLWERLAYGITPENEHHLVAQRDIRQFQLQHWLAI

[4] = target: FIH (Homo sapiens, UniProt Q9NWT6); assay: 2-Oxoglutarate oxygenase assay panel, MALDI-TOF assay; type: biochemical
Chain of FIH (Q9NWT6 whole entry): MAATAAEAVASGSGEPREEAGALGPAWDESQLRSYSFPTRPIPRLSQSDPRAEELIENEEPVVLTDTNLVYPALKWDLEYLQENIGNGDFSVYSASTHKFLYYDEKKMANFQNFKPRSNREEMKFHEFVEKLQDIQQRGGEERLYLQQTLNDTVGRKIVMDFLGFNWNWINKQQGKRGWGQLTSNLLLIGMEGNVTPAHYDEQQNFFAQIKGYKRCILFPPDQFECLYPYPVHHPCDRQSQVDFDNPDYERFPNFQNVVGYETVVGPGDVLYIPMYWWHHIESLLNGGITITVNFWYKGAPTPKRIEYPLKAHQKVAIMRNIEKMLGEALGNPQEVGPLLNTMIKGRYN

[5] = system: H3K4me3 in MM1S cells; assay: Quantitative ChIP-seq (ChIP-Rx spike-in) of H3K4me3; type: cell-based, human; settings: 50 μM, 7 days, spike-in quantification
Protocol: Immediately prior to fixation in 1% formaldehyde, three million sf9 cells were added to each sample. Cells were fixed for 8 min at room temperature, lysed, and sonicated on a Bioruptor Pico for 3 repeats of 10 cycles of 30 s on/30 s off. The sonicated lysates were incubated for 1 hr at 4°C with pre-blocked protein A Sepharose beads, prior to overnight incubation with 1 μg of anti-H3K4me3 antibody (Millipore cat no. 07–473 lot no. 2207281). Pre-blocked Sepharose beads were added for 1 hr, the beads washed, and DNA was eluted followed by Proteinase K digestion. Libraries were constructed using the NebNext Ultra DAN Kit (NEB) and sequenced on an Illumina NextSeq 500 platform. Libraries were also generated for the input of each condition and sequenced in a similar manner.
Sequencing reads were aligned to the concatenated human/sf9 genome generated earlier using Bowtie (version 1.1.2), allowing only reads that matched uniquely to one location. The number of reads mapping to the human and sf9 genomes separately in each condition was calculated. The number of sf9 reads-per-million total aligned reads was calculated for each pull-down condition and corrected according to the percentage of sf9 reads in the corresponding input samples. A scaling factor for normalization was then calculated for each pull-down based on the reciprocal of the corrected sf9 reads per million for each sample. […]

[6] = system: Caco-2 cells; assay: Caco-2 cell permeability assay; type: in vitro ADME
Protocol: The higher concentration (60 μM) required for cellular activity could be ascribed to different reasons: first to the partial competition with the co-factor 2-OG, the physiological intracellular concentrations of which could be up to […] levels ([Thirstrup et al., 2011]); second to an estimated moderate-to-low cell permeability of KDOAM25. […] Together these effects could explain the partial loss of potency observed in the IF cell assay.

[7] = target: T2, CXCR2 (IL-8B) (h) (Homo sapiens, UniProt P25025); assay: Cerep Express Panel, agonist radioligand; type: binding; settings: read-out: % Inhibition of reference (10 µM)
T2 sequence (P25025 1-360): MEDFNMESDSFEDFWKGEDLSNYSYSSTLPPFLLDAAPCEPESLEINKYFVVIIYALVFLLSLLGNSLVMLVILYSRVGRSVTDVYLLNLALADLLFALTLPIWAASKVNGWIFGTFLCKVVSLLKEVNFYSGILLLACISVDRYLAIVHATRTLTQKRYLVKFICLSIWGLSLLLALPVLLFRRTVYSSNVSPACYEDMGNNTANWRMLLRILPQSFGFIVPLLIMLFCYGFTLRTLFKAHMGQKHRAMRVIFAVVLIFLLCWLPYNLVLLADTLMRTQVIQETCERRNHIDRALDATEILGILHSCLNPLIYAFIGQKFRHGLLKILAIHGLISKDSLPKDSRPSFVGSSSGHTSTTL

[8] = target: AT1 (h) (Homo sapiens, UniProt P30556); assay: Cerep Express Panel, antagonist radioligand; type: binding; settings: read-out: % Inhibition of reference (10 µM)
Chain of AT1 (h) (P30556 whole entry): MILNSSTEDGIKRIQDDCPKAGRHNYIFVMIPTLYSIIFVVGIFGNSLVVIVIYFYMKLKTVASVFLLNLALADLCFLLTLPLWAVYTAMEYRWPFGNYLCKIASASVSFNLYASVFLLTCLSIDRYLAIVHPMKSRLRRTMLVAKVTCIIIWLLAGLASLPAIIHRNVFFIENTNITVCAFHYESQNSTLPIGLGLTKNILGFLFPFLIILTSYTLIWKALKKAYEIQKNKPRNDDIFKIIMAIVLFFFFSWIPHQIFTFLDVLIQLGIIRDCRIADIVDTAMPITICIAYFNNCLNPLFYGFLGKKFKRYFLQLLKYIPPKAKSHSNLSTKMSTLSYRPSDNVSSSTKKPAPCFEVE

[9] = Liver microsomes stability; type: in vitro ADME; settings: human liver microsomes
[10] = target: D1 (h) (Homo sapiens, UniProt P21728); assay: Cerep Express Panel, antagonist radioligand; type: binding; settings: read-out: % Inhibition of reference (10 µM)
Chain of D1 (h) (P21728 whole entry): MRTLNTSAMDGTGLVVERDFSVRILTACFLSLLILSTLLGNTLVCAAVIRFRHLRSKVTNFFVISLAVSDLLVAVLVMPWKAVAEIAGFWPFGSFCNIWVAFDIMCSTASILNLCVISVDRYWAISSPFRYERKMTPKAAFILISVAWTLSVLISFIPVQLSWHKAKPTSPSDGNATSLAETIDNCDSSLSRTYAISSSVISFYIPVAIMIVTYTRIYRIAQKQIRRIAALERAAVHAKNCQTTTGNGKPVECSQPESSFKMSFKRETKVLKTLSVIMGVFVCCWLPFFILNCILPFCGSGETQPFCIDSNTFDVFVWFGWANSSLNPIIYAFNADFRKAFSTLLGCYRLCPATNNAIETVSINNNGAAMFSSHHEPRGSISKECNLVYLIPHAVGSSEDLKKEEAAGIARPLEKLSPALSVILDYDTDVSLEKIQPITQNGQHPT

[11] = target: 5-HT3 (h) (Homo sapiens, UniProt P46098); assay: Cerep Express Panel, antagonist radioligand; type: binding; settings: read-out: % Inhibition of reference (10 µM)
Chain of 5-HT3 (h) (P46098 24-478): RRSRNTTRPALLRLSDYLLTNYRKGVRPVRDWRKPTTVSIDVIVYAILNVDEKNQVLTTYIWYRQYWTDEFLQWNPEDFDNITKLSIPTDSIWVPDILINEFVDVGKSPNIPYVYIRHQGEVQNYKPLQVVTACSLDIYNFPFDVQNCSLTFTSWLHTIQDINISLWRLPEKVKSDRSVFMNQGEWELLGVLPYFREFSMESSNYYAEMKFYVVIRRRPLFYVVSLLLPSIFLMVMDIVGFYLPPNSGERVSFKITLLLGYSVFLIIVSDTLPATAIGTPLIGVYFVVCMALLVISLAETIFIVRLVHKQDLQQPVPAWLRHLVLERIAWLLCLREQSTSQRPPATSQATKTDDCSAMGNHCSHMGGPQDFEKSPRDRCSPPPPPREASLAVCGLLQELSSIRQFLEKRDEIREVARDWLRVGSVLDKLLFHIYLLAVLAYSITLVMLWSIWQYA

[12] = system: other 2-OG oxygenases; assay: Selectivity panel, other 2-OG oxygenases (AlphaScreen or MALDI-TOF); type: biochemical; settings: AlphaScreen or MALDI-TOF enzymatic assays; read-out: no inhibition below (any of the other 2-OG oxygenases)
[13] = target: NTS1 (NT1) (h) (Homo sapiens, UniProt P30989); assay: Cerep Express Panel, agonist radioligand; type: binding; settings: read-out: % Inhibition of reference (10 µM)
Chain of NTS1 (NT1) (h) (P30989 whole entry): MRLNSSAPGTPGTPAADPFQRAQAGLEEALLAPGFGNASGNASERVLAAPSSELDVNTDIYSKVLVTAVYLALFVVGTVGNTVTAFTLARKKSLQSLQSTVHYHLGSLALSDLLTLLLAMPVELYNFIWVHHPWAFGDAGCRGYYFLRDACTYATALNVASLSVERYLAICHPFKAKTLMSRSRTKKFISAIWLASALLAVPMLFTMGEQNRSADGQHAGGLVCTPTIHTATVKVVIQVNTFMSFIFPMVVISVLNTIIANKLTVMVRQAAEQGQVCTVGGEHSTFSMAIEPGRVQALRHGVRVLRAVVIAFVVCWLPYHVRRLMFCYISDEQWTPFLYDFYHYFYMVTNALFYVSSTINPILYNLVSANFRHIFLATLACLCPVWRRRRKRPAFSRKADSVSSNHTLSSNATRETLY

[14] = system: endogenous KDM5 demethylases; assay: IF assay of endogenous H3K4me3 in untransfected HeLa cells; type: cell-based, human; settings: 48 hr
Protocol: In brief, cells were transiently transfected with either the FLAG-tagged WT or mutant demethylase described above, using Lipofectamine 2000 (Life Technologies). Four hours after transfection the cells were treated with serial dilutions of compound for 24 hr. The cells were subsequently fixed and stained with an anti-FLAG antibody (Sigma F3165) as well as an anti-methylated histone antibody (H3K4me3 Diagenode C15410003, H3K9me2 Abcam ab1220, H3K9me3 Abcam ab8898, H3K27me3 Millipore 07–449, or H3K36me2 Active Motif 61019). The secondary antibodies were labeled with either Alexa Fluor 488 or 568 (Life Technologies). Image acquisition was conducted using the Operetta High Content Imaging System (PerkinElmer) and image analysis was performed with the Columbus software (PerkinElmer). After the DAPI-stained nuclei were automatically identified, a minimum threshold for anti-FLAG intensity was set so that only cells highly expressing the demethylase were analyzed. Assays assessing the endogenous H3K4me3 methyl mark changes were performed accordingly without overexpressing KDM5 after compounds treatment for 48 hr.
Figure S1 related to Figure 2 Inhibition of KDM4/5 mediated H3K4me3
(A) EC50 curves of KDOAM-20, KDOAM-21 and KDOAM-32 in KDM5B and KDM4C (B)
and KDOAM-32 in untransfected HeLa cells.
(1 picture or pasted object on this page, not shown here)

[15] = system: MM1S cells; assay: Cell-cycle analysis; type: cell-based, human

Chain of PHF8 (Q9UPP1 whole entry, species assumed): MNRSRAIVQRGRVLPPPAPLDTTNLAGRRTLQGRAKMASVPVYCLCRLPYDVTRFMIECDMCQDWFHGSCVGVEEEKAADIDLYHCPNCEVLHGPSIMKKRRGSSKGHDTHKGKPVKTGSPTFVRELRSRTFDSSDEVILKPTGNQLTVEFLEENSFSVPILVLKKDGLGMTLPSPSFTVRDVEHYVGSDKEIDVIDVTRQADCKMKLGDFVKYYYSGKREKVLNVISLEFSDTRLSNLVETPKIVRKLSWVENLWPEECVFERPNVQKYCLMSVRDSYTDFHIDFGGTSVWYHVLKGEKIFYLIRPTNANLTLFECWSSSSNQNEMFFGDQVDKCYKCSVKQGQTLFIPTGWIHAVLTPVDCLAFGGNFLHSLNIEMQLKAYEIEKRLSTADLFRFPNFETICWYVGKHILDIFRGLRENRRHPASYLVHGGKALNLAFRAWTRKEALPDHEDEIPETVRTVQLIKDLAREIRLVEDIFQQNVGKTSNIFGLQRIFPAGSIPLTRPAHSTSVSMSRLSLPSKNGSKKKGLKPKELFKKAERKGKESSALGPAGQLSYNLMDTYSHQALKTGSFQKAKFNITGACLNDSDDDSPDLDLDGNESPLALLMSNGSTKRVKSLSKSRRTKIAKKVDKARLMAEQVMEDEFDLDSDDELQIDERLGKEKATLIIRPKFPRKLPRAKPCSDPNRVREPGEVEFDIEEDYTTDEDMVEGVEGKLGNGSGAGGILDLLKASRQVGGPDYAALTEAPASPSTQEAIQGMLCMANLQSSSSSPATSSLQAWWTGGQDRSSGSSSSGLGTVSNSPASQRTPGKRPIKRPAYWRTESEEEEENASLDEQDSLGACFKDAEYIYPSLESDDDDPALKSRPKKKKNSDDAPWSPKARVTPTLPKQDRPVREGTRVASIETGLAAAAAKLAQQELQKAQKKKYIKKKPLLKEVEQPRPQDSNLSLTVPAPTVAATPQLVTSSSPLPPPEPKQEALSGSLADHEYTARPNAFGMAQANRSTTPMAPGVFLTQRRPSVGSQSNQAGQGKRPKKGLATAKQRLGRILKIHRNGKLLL
Chain of 5-HT1A (h) (P08908 whole entry): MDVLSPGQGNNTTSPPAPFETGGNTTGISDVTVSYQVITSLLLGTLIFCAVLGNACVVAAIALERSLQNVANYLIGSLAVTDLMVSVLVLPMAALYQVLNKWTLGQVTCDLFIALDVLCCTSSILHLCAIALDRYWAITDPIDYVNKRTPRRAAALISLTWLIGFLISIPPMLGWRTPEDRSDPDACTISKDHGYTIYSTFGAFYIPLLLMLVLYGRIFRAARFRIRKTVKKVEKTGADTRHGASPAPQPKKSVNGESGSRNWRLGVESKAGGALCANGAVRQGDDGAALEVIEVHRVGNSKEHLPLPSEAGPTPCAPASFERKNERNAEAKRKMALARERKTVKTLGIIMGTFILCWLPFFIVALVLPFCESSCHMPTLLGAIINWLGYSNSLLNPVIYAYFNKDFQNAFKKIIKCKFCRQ

## CCN(CCN(C)C)C(=O)CNCc1cc(C(N)=O)ccn1 [KDOAM-25]
[1]
  pIC50 PHF8: 5.0 ± 0.057
[2]
  inhibition at 10 µM: -7%
[3]
  inhibition at 10 µM: -6%
[4]
  IC50: > 100 µM
[5]
  H3K4me3 level compared with the vehicle control: approximately twice
[6]
  Caco-2 A-B: < 0.76
  Caco-2 B-A: < 0.76
[6]; passive permeation
  Caco-2 permeability, in words: low permeability region
[7]
  inhibition at 10 µM: 5%
[8]
  inhibition at 10 µM: -7%
[9]
  intrinsic clearance, in words: low intrinsic clearance
[9]; read-out: HLM Clint
  microsomal CLint: 11.9 µL/min/mg
[10]
  inhibition at 10 µM: 10%
[11]
  inhibition at 10 µM: 8%
[12]
  IC50: ≥ 4.8 µM
[13]
  inhibition at 10 µM: -12%
[14]
  inhibition of endogenous KDM5 demethylases, potency in words: potencies similar to those seen in the overexpression assay
[15]
  cell-cycle effect: G1 cell-cycle arrest
